In the experiment the target is T1, PDE4B (human recombinant) (Homo sapiens, UniProt Q07343).
T1 construct: made in house; host or cells: Saccharomyces cerevisiae strain GL62 (PDE-deficient)
T1 sequence (Q07343 1-564 isoform Q07343-2): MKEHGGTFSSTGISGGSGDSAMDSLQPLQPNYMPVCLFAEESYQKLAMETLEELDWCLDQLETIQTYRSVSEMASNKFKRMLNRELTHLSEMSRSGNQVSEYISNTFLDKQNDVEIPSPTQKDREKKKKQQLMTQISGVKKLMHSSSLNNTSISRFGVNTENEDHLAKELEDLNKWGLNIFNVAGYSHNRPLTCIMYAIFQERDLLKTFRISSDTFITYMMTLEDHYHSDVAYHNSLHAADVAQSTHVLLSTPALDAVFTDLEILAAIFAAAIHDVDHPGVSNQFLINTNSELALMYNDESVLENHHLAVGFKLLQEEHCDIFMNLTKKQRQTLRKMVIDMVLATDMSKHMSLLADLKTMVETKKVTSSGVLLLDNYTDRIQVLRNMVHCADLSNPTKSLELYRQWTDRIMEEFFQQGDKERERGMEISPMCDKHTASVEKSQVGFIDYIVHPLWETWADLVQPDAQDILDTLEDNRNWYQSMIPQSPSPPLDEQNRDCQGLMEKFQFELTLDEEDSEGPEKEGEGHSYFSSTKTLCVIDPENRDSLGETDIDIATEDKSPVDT
The experiment in a line: PDE4B inhibition, radioactive SPA or IMAP fluorescence polarisation (FP) assay. It counts as biochemical. The settings on record: one reading or average of ca. 2-6 readings, accurate only to about ±0.5 log unit, read-out: PDE4B pIC50 (±about 0.5) (converted). An excerpt:
Human recombinant PDE4B, in particular the 2B splice variant thereof (HSPDE4B2B), is disclosed in WO 94/20079 and also M. M. McLaughlin et al., “A low Km, rolipram-sensitive, cAMP-specific phosphodiesterase from human brain: cloning and expression of cDNA, biochemical characterisation of recombinant protein, and tissue distribution of mRNA”, J. Biol. Chem., 1993, 268, 6470-6476. Human recombinant PDE4B was expressed in the PDE-deficient yeast Saccharomyces cerevisiae strain GL62. 100,000×g supernatant fractions of yeast cell lysates were used for PDE4B assays and inhibitor studies.
The ability of compounds to inhibit catalytic activity at PDE4B or 4D (human recombinant), PDE3 (from bovine aorta) or PDE5 (human recombinant) or PDE6 (from bovine retina) was determined by Scintillation Proximity Assay (SPA) in 96-well format. Test compounds (preferably as a solution in DMSO, e.g. about 2 microlitre (ul) volume of DMSO solution) were preincubated at ambient temperature (room temperature, e.g. 19-23° C.) in Wallac Isoplates (code 1450-514) with PDE enzyme in 50 mM Tris-HCl buffer pH 7.5, 8.3 mM MgCl2, 1.7 mM EGTA, 0.05% (w/v) bovine serum albumin for 10-30 minutes (usually 30 minutes). The enzyme concentration was adjusted so that no more than 20% hydrolysis of the substrate defined below occurred in control wells without compound, during the incubation. For PDE3, PDE4B and PDE4D assays, [5′,8-^3H]Adenosine 3′,5′-cyclic phosphate (Amersham Pharmacia Biotech, code TRK.559; or Amersham Biosciences UK Ltd, Pollards Wood, Chalfont St Giles, Buckinghamshire HP8 4SP, UK) was added to give 0.05 uCi per well and ˜10 nM final concentration. For the PDE5 and PDE6 assay [8-^3H]Guanosine 3′,5′-cyclic phosphate (Amersham Pharmacia Biotech, code TRK.392) was added to give 0.05 uCi per well and ˜36 nM final concentration. Plates, preferably containing approx. 100 ul volume of assay mixture, were mixed on an orbital shaker for 5 minutes and incubated at ambient temperature for 1 hour. Phosphodiesterase SPA beads (Amersham Pharmacia Biotech, code RPNQ 0150) were added (˜1 mg per well) to terminate the assay. Plates were sealed and shaken and allowed to stand at ambient temperature for 35 minutes to 1 hour (preferably 35 minutes) to allow the beads to settle. Bound radioactive product was measured using a WALLAC TRILUX 1450 Microbeta scintillation counter. For inhibition curves, 10 concentrations ([…]) of each compound were assayed. Curves were analysed using ActivityBase and XLfit (ID Businesss Solutions Limited, 2 Ocean Court, Surrey Research Park, Guildford, Surrey GU2 7QB, United Kindgom) Results were expressed as pIC50 values.
The ability of compounds to inhibit catalytic activity at PDE4B (human recombinant) or PDE4D (human recombinant) was determined by IMAP Fluorescence Polarisation (FP) assay (IAP Explorer kit, available from Molecular Devices Corporation, Sunnydale, Calif., USA; Molecular Devices code: R8062) in 384-well format. The IMAP FP assay is able to measure PDE activity in an homogenous, non-radioactive assay format. The FP assay uses the ability of immobilised trivalent metal cations, coated onto nanoparticles (tiny beads), to bind the phosphate group of Fl-AMP that is produced on the hydrolysis of fluorescein-labelled (Fl) cyclic adenosine mono-phosphate (Fl-cAMP) to the non-cyclic Fl-AMP form. […] Binding of Fl-AMP product to the beads (coated with the immobilised trivalent cations) slows the rotation of the bound Fl-AMP and leads to an increase in the fluorescence polarisation ratio of parallel to perpendicular light. Inhibition of the PDE reduces/inhibits this signal increase. […]
A general note: In fluorescence polarisation assays a small probe gives low polarisation when free and higher when bound to something large.
As to `CCn1ncc2c(NC3CCOCC3)c(C3=N[C@@H](c4ccccc4)CO3)cnc21` [Example 50, 1-Ethyl-5-[(4S)-4-phenyl-4,5-dihydro-1,3-oxazol-2-yl]-N-(tetrahydro-2H-pyran-4-yl)-1H-pyrazolo[3,4-b]pyridin-4-amine], the IC50 is 0.794 to 31.6 nM.
Then `CCn1ncc2c(NC3CCOCC3)c(-c3nnc(C4CCOCC4)o3)c(C)nc21` [Example 66, 1-Ethyl-6-methyl-N-(tetrahydro-2H-pyran-4-yl)-5-[5-(tetrahydro-2H-pyran-4-yl)-1,3,4-oxadiazol-2-yl]-1H-pyrazolo[3,4-b]pyridin-4-amine], with 0.794 to 31.6 nM; and `CCn1ncc2c(N[C@@H](C)C(C)C)c(-c3nnc(CS(C)(=O)=O)o3)cnc21` [Example 26, N-[(1S)-1,2-dimethylpropyl]-1-ethyl-5-{5-[(methylsulfonyl)methyl]-1,3,4-oxadiazol-2-yl}-1H-pyrazolo[3,4-b]pyridin-4-amine], with 0.794 to 31.6 nM.
For `CCn1ncc2c(NC3CCOCC3)c(-c3nnc(CC4CCOCC4)o3)cnc21` [Example 77, 1-Ethyl-N-(tetrahydro-2H-pyran-4-yl)-5-[5-(tetrahydro-2H-pyran-4-ylmethyl)-1,3,4-oxadiazol-2-yl]-1H-pyrazolo[3,4-b]pyridin-4-amine], the IC50 is 0.794 to 31.6 nM.
As to `CCn1ncc2c(NC3CCCCC3)c(-c3nnc(CS(C)(=O)=O)o3)cnc21` [Example 24, N-Cyclohexyl-1-ethyl-5-{5-[(methylsulfonyl)methyl]-1,3,4-oxadiazol-2-yl}-1H-pyrazolo[3,4-b]pyridin-4-amine], the IC50 was 6.31 nM.
As for `CCn1ncc2c(NC3CCC(=O)CC3)c(-c3nnc(C)o3)cnc21` [Example 63, 4-{[1-Ethyl-5-(5-methyl-1,3,4-oxadiazol-2-yl)-1H-pyrazolo[3,4-b]pyridin-4-yl]amino}cyclohexanone], the IC50 was 0.794 to 31.6 nM.
With `CCn1ncc2c(NC3CCN(C(C)=O)CC3)c(-c3nc(CN4CCOCC4)no3)cnc21` [Example 48, N-(1-Acetylpiperidin-4-yl)-1-ethyl-5-[3-(morpholin-4-ylmethyl)-1,2,4-oxadiazol-5-yl]-1H-pyrazolo[3,4-b]pyridin-4-amine], the IC50 was 63.1 to 251 nM.
Take `CCn1ncc2c(NC3CCOCC3)c(-c3nnc(Cc4nonc4C)o3)cnc21` [Example 71, 1-Ethyl-5-{5-[(4-methyl-1,2,5-oxadiazol-3-yl)methyl]-1,3,4-oxadiazol-2-yl}-N-(tetrahydro-2H-pyran-4-yl)-1H-pyrazolo[3,4-b]pyridin-4-amine]: the IC50 is 0.794 to 31.6 nM.
Under `CCCn1ncc2c(NC3CCOCC3)c(-c3nnc(C)o3)cnc21` [Example 43, 1-n-Propyl-5-(5-methyl-1,3,4-oxadiazol-2-yl)-N-(tetrahydro-2H-pyran-4-yl)-1H-pyrazolo[3,4-b]pyridin-4-amine] stands 63.1 to 251 nM; under `CCn1ncc2c(NC3CCOCC3)c(-c3nc(CC(=O)N4CCCC4)no3)cnc21` [Example 84, 1-Ethyl-5-{3-[2-oxo-2-(1-pyrrolidinyl)ethyl]-1,2,4-oxadiazol-5-yl}-N-(tetrahydro-2H-pyran-4-yl)-1H-pyrazolo[3,4-b]pyridin-4-amine], 0.794 to 31.6 nM.
Take `CCn1ncc2c(NC3CCCOC3)c(-c3nnc(C)o3)cnc21` (stereo not shown) [Example 62, 1-Ethyl-5-(5-methyl-1,3,4-oxadiazol-2-yl)-N-(tetrahydro-2H-pyran-3-yl)-1H-pyrazolo[3,4-b]pyridin-4-amine]: the IC50 was 0.794 to 31.6 nM.
In the case of `CCn1ncc2c(NC3CCOCC3)c(C3=NC(C)CO3)cnc21` (stereo not shown) [Example 42, 1-Ethyl-5-(4-methyl-4,5-dihydro-1,3-oxazol-2-yl)-N-(tetrahydro-2H-pyran-4-yl)-1H-pyrazolo[3,4-b]pyridin-4-amine], the IC50 is 5.01 nM.
Take `CCn1ncc2c(NC3CCOCC3)c(-c3nnc(C4(C)COC4)o3)cnc21` [Example 34, 1-Ethyl-5-[5-(3-methyloxetan-3-yl)-1,3,4-oxadiazol-2-yl]-N-(tetrahydro-2H-pyran-4-yl)-1H-pyrazolo[3,4-b]pyridin-4-amine]: the IC50 is 0.794 to 31.6 nM.
Then `CCn1ncc2c(NCC(C)C)c(-c3nnc(C)o3)cnc21` [Example 12, 1-Ethyl-N-isobutyl-5-(5-methyl-1,3,4-oxadiazol-2-yl)-1H-pyrazolo[3,4-b]pyridin-4-amine], with 12.6 nM; and `CCCN(c1c(-c2nnc(C)o2)cnc2c1cnn2CC)C1CCOCC1` [Example 64, 1-Ethyl-5-(5-methyl-1,3,4-oxadiazol-2-yl)-N-n-propyl-N-(tetrahydro-2H-pyran-4-yl)-1H-pyrazolo[3,4-b]pyridin-4-amine], with 63.1 to 251 nM.
On to `CCn1ncc2c(NC3CCCC3)c(-c3nnc(CS(C)(=O)=O)o3)cnc21` [Example 2, N-Cyclopentyl-1-ethyl-5-{5-[(methylsulfonyl)methyl]-1,3,4-oxadiazol-2-yl}-1H-pyrazolo[3,4-b]pyridin-4-amine], for which the IC50 was 0.794 to 31.6 nM.
Under `CCn1ncc2c(NC3CCOCC3)c(-c3nnc(CN(C)C(C)=O)o3)cnc21` [Example 76, N-({5-[1-Ethyl-4-(tetrahydro-2H-pyran-4-ylamino)-1H-pyrazolo[3,4-b]pyridin-5-yl]-1,3,4-oxadiazol-2-yl}methyl)-N-methylacetamide] stands 0.794 to 31.6 nM.
Then `CCn1ncc2c(NC3CCCC3)c(-c3nnc(C(C)C)s3)cnc21` [Example 6, N-Cyclopentyl-1-ethyl-5-(5-isopropyl-1,3,4-thiadiazol-2-yl)-1H-pyrazolo[3,4-b]pyridin-4-amine], with 7.94 nM.
For `CCn1ncc2c(NC3CCOCC3)c(-c3nc(C(=O)N4CCOCC4)co3)cnc21` [Example 59, 1-Ethyl-5-[4-(4-morpholinylcarbonyl)-1,3-oxazol-2-yl]-N-(tetrahydro-2H-pyran-4-yl)-1H-pyrazolo[3,4-b]pyridin-4-amine], the IC50 was 0.794 to 31.6 nM.
For the compound `CCn1ncc2c(NC3CCCCC3)c(-c3nnc(C(C)C)o3)cnc21` [Example 10, N-Cyclohexyl-1-ethyl-5-(5-isopropyl-1,3,4-oxadiazol-2-yl)-1H-pyrazolo[3,4-b]pyridin-4-amine], the IC50 is 6.31 nM.
Consider `CCn1ncc2c(N[C@H]3CC[C@H](O)CC3)c(-c3nnc(C)o3)cnc21` [Example 61, trans-4-{[1-Ethyl-5-(5-methyl-1,3,4-oxadiazol-2-yl)-1H-pyrazolo[3,4-b]pyridin-4-yl]amino}cyclohexanol], for which the IC50 is 63.1 to 251 nM.
As for `CCn1ncc2c(N(C)C3CCOCC3)c(-c3nnc(C)o3)cnc21` [Example 60, 1-Ethyl-N-methyl-5-(5-methyl-1,3,4-oxadiazol-2-yl)-N-(tetrahydro-2H-pyran-4-yl)-1H-pyrazolo[3,4-b]pyridin-4-amine], the IC50 is 63.1 to 251 nM.
Take `CCn1ncc2c(NC3CCOCC3)c(-c3nnc(CN4CCOCC4)o3)cnc21` [Example 39, 1-Ethyl-5-[5-(morpholin-4-ylmethyl)-1,3,4-oxadiazol-2-yl]-N-(tetrahydro-2H-pyran-4-yl)-1H-pyrazolo[3,4-b]pyridin-4-amine]: the IC50 was 0.794 to 31.6 nM.
With `CCn1ncc2c(NC3CCOCC3)c(-c3nnc(C4CCCO4)o3)cnc21` (stereo not shown) [Example 44, 1-Ethyl-5-[5-(tetrahydrofuran-2-yl)-1,3,4-oxadiazol-2-yl]-N-(tetrahydro-2H-pyran-4-yl)-1H-pyrazolo[3,4-b]pyridin-4-amine], the IC50 was 0.794 to 31.6 nM.
`CCn1ncc2c(Nc3ccc(F)cc3)c(-c3nc(C)no3)cnc21` [Example 7, 1-Ethyl-N-(4-fluorophenyl)-5-(3-methyl-1,2,4-oxadiazol-5-yl)-1H-pyrazolo[3,4-b]pyridin-4-amine]: the IC50 was 63.1 to 251 nM.

Values taken from patent US7528148B2, “Pyrazolo[3,4-B]pyridine compounds, and their use as phosphodiesterase inhibitors” (Glaxo Group Limited, priority 2002, dated 2009).
